Measured values reported in patent US20240368127A1, “HSD17B13 INHIBITORS AND USES THEREOF” (FL2022-001, Inc., priority 2021, published 2024).

What follows are compounds tested against T1, Recombinant human HSD17B13 enzyme (Homo sapiens, UniProt Q7Z5P4) (assay: HSD17b13 NAD(P)H-Glo biochemical assay). Details: 50 μM estradiol, 1 mM NAD+, 37° C. for 3 hours; read-out: HSD17β13 IC50.
T1 sequence (Q7Z5P4 20-300): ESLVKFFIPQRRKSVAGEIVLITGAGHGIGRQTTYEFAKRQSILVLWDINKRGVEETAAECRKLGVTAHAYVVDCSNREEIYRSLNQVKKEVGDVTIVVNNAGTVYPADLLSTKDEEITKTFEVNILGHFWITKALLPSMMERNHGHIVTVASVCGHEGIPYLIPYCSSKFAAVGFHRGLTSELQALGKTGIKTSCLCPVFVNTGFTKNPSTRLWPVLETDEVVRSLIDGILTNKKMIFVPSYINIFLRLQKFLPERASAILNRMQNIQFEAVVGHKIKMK
Method in brief: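 Enzyme preincubated with inhibitor 20 min at RT in 20 mM Tris pH7.4, 0.002% Tween-20, 0.02% BSA, then reacted 3 h at 37° C with 50 μM estradiol and 1 mM NAD+ (final). NADH formation read by NAD(P)H-Glo luminescence after 1 h at RT.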

| Structure (SMILES) | IC50 [µM] |
| --- | --- |
| Cc1c(C(F)(F)F)cc(-c2nn(C)c3nc(N4CCN(S(C)(=O)=O)C[C@H]4Cc4ccccc4)ncc23)c(F)c1O [Compound 11.19, (R)-3-(6-(2-Benzyl-4-(methylsulfonyl)piperazin-1-yl)-1-methyl-1H-pyrazolo[3,4-d]pyrimidin-3-yl)-2-fluoro-6-methyl-5-(trifluoromethyl)phenol] | ≤ 0.1 |
| Cc1c(F)cc(-c2nn(C)c3nc(N4CCN(S(C)(=O)=O)C[C@H]4Cc4ccccc4)ncc23)c(F)c1O [Compound 11.20, (R)-3-(6-(2-Benzyl-4-(methylsulfonyl)piperazin-1-yl)-1-methyl-1H-pyrazolo[3,4-d]pyrimidin-3-yl)-2,5-difluoro-6-methylphenol] | ≤ 0.1 |
| CCn1nc(-c2cc(C(F)(F)F)c(F)c(O)c2F)c2cnc(N3CCN(S(C)(=O)=O)C[C@H]3Cc3ccccc3)nc21 [Compound 11.22, (R)-3-(6-(2-Benzyl-4-(methylsulfonyl)piperazin-1-yl)-1-ethyl-1H-pyrazolo[3,4-d]pyrimidin-3-yl)-2,6-difluoro-5-(trifluoromethyl)phenol] | ≤ 0.1 |
| COC(=O)[C@@H]1COCCN1c1ncc2c(-c3cc(C(F)(F)F)c(F)c(O)c3F)nn(C)c2n1 [Compound 11.23, Methyl (S)-4-(3-(2,4-difluoro-3-hydroxy-5-(trifluoromethyl)phenyl)-1-methyl-1H-pyrazolo[3,4-d]pyrimidin-6-yl)morpholine-3-carboxylate] | ≤ 0.1 |
| Cn1nc(-c2cc(C(F)(F)F)c(F)c(O)c2F)c2cnc(N3CCOC[C@H]3C(=O)NC3CCCCC3)nc21 [Compound 11.25, (S)-N-Cyclohexyl-4-(3-(2,4-difluoro-3-hydroxy-5-(trifluoromethyl)phenyl)-1-methyl-1H-pyrazolo[3,4-d]pyrimdiin-6-yl)morpholine-3-carboxamide] | ≤ 0.1 |
| Cn1nc(-c2cc(C(F)(F)F)c(F)c(O)c2F)c2cnc(N3CCOC[C@H]3C(=O)N3CCCCC3)nc21 [Compound 11.26, (S)-(4-(3-(2,4-Difluoro-3-hydroxy-5-(trifluoromethyl)phenyl)-1-methyl-1H-pyrazolo[3,4-d]pyrimidin-6-yl)morpholin-3-yl)(piperidin-1-yl)methanone] | ≤ 0.1 |
| Cn1nc(-c2cc(C(F)(F)F)c(F)c(O)c2F)c2cnc(N3CCN(S(C)(=O)=O)CC3CC3CCC3)nc21 (centres unmarked) [Compound 11.27, 3-(6-(2-(Cyclobutylmethyl)-4-(methylsulfonyl)piperazin-1-yl)-1-methyl-1H-pyrazolo[3,4-d]pyrimidin-3-yl)-2,6-difluoro-5-(trifluoromethyl)phenol] | ≤ 0.1 |
| Cn1nc(-c2cc(C(F)(F)F)c(F)c(O)c2F)c2cnc(N3CCO[C@@H](Cc4ccccc4)C3)nc21 [Compound 12, (S)-3-(6-(2-Benzylmorpholino)-1-methyl-1H-pyrazolo[3,4-d]pyrimidin-3-yl)-2,6-difluoro-5-(trifluoromethyl)phenol] | ≤ 0.1 |
| Cn1nc(-c2cc(C(F)(F)F)c(F)c(O)c2F)c2cnc(N3CCO[C@@H](Cc4ccc(C#N)cc4)C3)nc21 [Compound 12.02, (S)-4-((4-(3-(2,4-Difluoro-3-hydroxy-5-(trifluoromethyl)phenyl)-1-methyl-1H-pyrazolo[3,4-d]pyrimidin-6-yl)morpholin-2-yl)methyl)benoznitrile] | ≤ 0.1 |
| Cn1nc(-c2cc(C(F)(F)F)c(F)c(O)c2F)c2cnc(N3CCO[C@@H](Cc4cccc(C#N)c4)C3)nc21 [Compound 12.03, (S)-3-((4-(3-(2,4-Difluoro-3-hydroxy-5-(trifluoromethyl)phenyl)-1-methyl-1H-pyrazolo[3,4-d]pyrimidin-6-yl)morpholin-2-yl)methyl)benzonitrile] | ≤ 0.1 |
| Cn1nc(-c2cc(C(F)(F)F)c(F)c(O)c2F)c2cnc(N3CCO[C@@H](Cc4ccc(C(N)=O)cc4)C3)nc21 [Compound 12.04, (S)-4-((4-(3-(2,4-Difluoro-3-hydroxy-5-(trifluoromethyl)phenyl)-1-methyl-1H-pyrazolo[3,4-d]pyrimidin-6-yl)morpholin-2-yl)methyl)benzamide] | ≤ 0.1 |
| Cn1nc(-c2cc(C(F)(F)F)c(F)c(O)c2F)c2cnc(N3CCO[C@@H](Cc4cccc(C(N)=O)c4)C3)nc21 [Compound 12.05, (S)-3-((4-(3-(2,4-Difluoro-3-hydroxy-5-(trifluoromethyl)phenyl)-1-methyl-1H-pyrazolo[3,4-d]pyrimidin-6-yl)morpholin-2-yl)methyl)benzamide] | ≤ 0.1 |
| Cn1nc(-c2cc(C(F)(F)F)c(F)c(O)c2F)c2cnc(N3CCO[C@@H](Cc4ccc(S(N)(=O)=O)cc4)C3)nc21 [Compound 12.08, (S)-4-((4-(3-(2,4-Difluoro-3-hydroxy-5-(trifluoromethyl)phenyl)-1-methyl-1H-pyrazolo[3,4-d]pyrimidin-6-yl)morpholin-2-y)methyl)benzenesulfonamide] | ≤ 0.1 |

The remaining lines, values ahead:

| IC50 [µM] | Structure (SMILES) |
| --- | --- |
| ≤ 0.1 | CN(C)C(=O)N1CCN(c2ncc3c(-c4cc(C(F)(F)F)c(F)c(O)c4F)nn(C)c3n2)C(CC2CC2)C1 (centres unmarked) [Compound 11.21, 3-(Cyclopropylmethyl)-4-(3-(2,4-difluoro-3-hydroxy-5-(trifluoromethyl)phenyl)-1-methyl-1H-pyrazolo[3,4-d]pyrimidin-6-yl)-N,N-dimethylpiperazine-1-carboxamide] |
| ≤ 0.1 | CC(C)NC(=O)[C@@H]1COCCN1c1ncc2c(-c3cc(C(F)(F)F)c(F)c(O)c3F)nn(C)c2n1 [Compound 11.24, (S)-4-(3-(2,4-Difluoro-3-hydroxy-5-(trifluoromethyl)phenyl)-1-methyl-1H-pyrazolo[3,4-d]pyrimidin-6-yl)-N-isopropylmorpholine-3-carboxamide] |
| ≤ 0.1 | Cn1nc(-c2cc(C(F)(F)F)c(F)c(O)c2F)c2cnc(N3CCN(C(N)=O)CC3CC3CC3)nc21 (centres unmarked) [Compound 11.28, 3-(Cyclopropylmethyl)-4-(3-(2,4-difluoro-3-hydroxy-5-(trifluoromethyl)phenyl)-1-methyl-1H-pyrazolo[3,4-d]pyrimidin-6-yl)piperazine-1-carboxamide] |
| ≤ 0.1 | Cn1nc(-c2cc(C(F)(F)F)c(F)c(O)c2F)c2cnc(N3CCO[C@@H](Cc4cccnc4)C3)nc21 [Compound 12.01, (S)-2,6-Difluoro-3-(1-methyl-6-(2-(pyridin-3-ylmethyl)morpholino)-1H-pyrazolo[3,4-d]pyrimidin-3-yl)-5-(trifluoromethyl)phenol] |
| ≤ 0.1 | Cn1nc(-c2cc(C(F)(F)F)c(F)c(O)c2F)c2cnc(N3CCO[C@@H](Cc4cccc(S(N)(=O)=O)c4)C3)nc21 [Compound 12.06, (S)-3-((4-(3-(2,4-Difluoro-3-hydroxy-5-(trifluoromethyl)phenyl)-1-methyl-1H-pyrazolo[3,4-d]pyrimidin-6-yl)morpholin-2-yl)methyl)benzenesulfonamide] |
| ≤ 0.1 | Cc1cccc(C[C@H]2CN(c3ncc4c(-c5cc(C(F)(F)F)c(F)c(O)c5F)nn(C)c4n3)CCO2)c1 [Compound 12.07, (S)-2,6-Difluoro-3-(1-methyl-6-(2-(3-methylbenzyl)morpholin)-1H-pyrazolo[3,4-d]pyrimidin-3-yl)-5-(trifluoromethyl)phenol] |
| ≤ 0.1 | Cc1ccc([C@@H](O)[C@H]2CN(c3ncc4c(-c5cc(C(F)(F)F)c(F)c(O)c5F)nn(C)c4n3)CCO2)cc1 [Compound 13, 2,6-Difluoro-3-(6-((R)-2-((R)-hydroxy(p-tolyl)methyl)morpholino)-1-methyl-1H-pyrazolo[3,4-d]pyrimidin-3-yl)-5-(trifluoromethyl)phenol] |
